# Test results reported in ChEMBL document CHEMBL1944572, “High-affinity fluorescent ligands for the 5-HT(3) receptor” (Bioorg Med Chem Lett, 2012).
# The source made the active and inactive calls. No cut-off for these calls is given here.
# Columns and labels:
# Type in all cases: cell-based
# [1] = molecular target: T1, 5-hydroxytryptamine receptor 3A (Homo sapiens) (UniProt P46098); test: Binding affinity to human 5HT3A expressed in COS7 cells at 100 nM after 1 hr by fluorescence microscopy; conditions: COS-7
# T1 sequence (whole entry): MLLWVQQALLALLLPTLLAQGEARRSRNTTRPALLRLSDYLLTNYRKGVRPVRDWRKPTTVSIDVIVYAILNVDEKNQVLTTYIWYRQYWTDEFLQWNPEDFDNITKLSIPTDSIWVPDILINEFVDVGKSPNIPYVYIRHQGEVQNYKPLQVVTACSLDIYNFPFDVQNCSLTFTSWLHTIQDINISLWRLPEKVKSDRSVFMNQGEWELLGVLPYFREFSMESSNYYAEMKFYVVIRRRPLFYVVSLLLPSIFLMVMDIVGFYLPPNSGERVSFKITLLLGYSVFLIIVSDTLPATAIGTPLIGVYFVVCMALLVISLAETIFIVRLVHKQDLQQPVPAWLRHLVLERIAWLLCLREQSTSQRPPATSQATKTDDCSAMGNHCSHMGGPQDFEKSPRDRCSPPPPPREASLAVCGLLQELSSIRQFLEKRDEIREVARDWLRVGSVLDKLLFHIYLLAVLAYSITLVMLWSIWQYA
# [2] = molecular target: T1, 5-hydroxytryptamine receptor 3A (Homo sapiens); test: Binding affinity to human 5HT3A expressed in COS7 cells at 100 nM after 1 hr by fluorescence microscopy in presence of 10 uM ondansetron; conditions: COS-7
# [3] = molecular target: T2, 5-hydroxytryptamine receptor 3A (Homo sapiens, UniProt P46098); test: Displacement of [3H]granisetron from human 5HT3A expressed in HEK293 cells after 1 hr by scintillation counting
# T2 sequence (P46098 whole entry): T1 sequence (whole entry)
Structure (SMILES),Activity [1],Activity [2],Ki [3]
CC1=CC(C)=[N+]2C1=C(CCCOC(=O)CCCn1nc(C(=O)N[C@@H]3C[C@H]4CCC[C@@H](C3)N4C)c3ccccc31)c1c(C)cc(C)n1[B-]2(F)F,Active,Active,
CN1[C@@H]2CCC[C@H]1C[C@H](NC(=O)c1nn(CCCNC(=S)Nc3ccc(-c4c5ccc(=O)cc-5oc5cc(O)ccc45)c(C(=O)O)c3)c3ccccc13)C2,Active,inactive,
CN1[C@@H]2CCC[C@H]1C[C@H](NC(=O)c1nn(CCCNc3ccc([N+](=O)[O-])c4nonc34)c3ccccc13)C2,inactive,,
CN(C)c1cccc2c(S(=O)(=O)NCCCn3nc(C(=O)N[C@H]4C[C@H]5CCC[C@@H](C4)N5C)c4ccccc43)cccc12,inactive,,
CCN(CC)c1ccc2cc(C(=O)NCCOc3cccc4c(C(=O)N[C@@H]5C[C@H]6CCC[C@@H](C5)N6C)nn(C)c34)c(=O)oc2c1,inactive,,
CN1[C@@H]2CCC[C@H]1C[C@H](NC(=O)c1nn(CCCCNc3ccc([N+](=O)[O-])c4nonc34)c3ccccc13)C2,,,Not Active
CCN(CC)c1ccc2cc(C(=O)NCCCCn3nc(C(=O)N[C@@H]4C[C@H]5CCC[C@@H](C4)N5C)c4ccccc43)c(=O)oc2c1,inactive,,
CN1[C@@H]2CCC[C@H]1C[C@H](NC(=O)c1nn(CCCCNC(=S)Nc3ccc(-c4c5ccc(=O)cc-5oc5cc(O)ccc45)c(C(=O)O)c3)c3ccccc13)C2,Active,inactive,
